Measurements: patent publication US20040106687A1, “Carotenoids as anti-hypertension agents” (priority 2001, published 2004)

Test system: healthy young individuals
Experiment: Double-blind, placebo-controlled crossover study of lycopene consumption, heart rate and blood pressure measured
Format: in vivo, human
Experimental: A double-blind, placebo-controlled crossover study of lycopene consumption in 16 healthy young individuals. Each subject was studied at baseline and then given 15 mg lycopene or placebo for two weeks and re-evaluated. A one-month lycopene administration free washout period followed, another lycopene administration was administered prior to a final evaluation. Each evaluation included measures among other parameters also heart rate and blood pressure. […]

[1] = 16 healthy young individuals, 15 mg lycopene for two weeks

SMILES: CC(C)=CCC/C(C)=C/C=C/C(C)=C/C=C/C(C)=C/C=C/C=C(C)/C=C/C=C(C)/C=C/C=C(\C)CCC=C(C)C [Lycopene, lycopene]
- Diastolic Blood Pressure [1]: 66 ± 2 mmHg
- Systolic Blood Pressure [1]: 114 ± 2 mmHg
- Change in diastolic blood pressure as compared to placebo administration (during lycopene administration, 15 mg for two weeks, p<0.05): significant reduction
